This note sets out measurements from patent publication US9776990B2, “Isoindolone derivatives” (AbbVie Inc., priority 2012, dated 2017).

One test deals with BRD4 (BDI_K57-E168) (Homo sapiens (Human), UniProt O60885). The experiment in a line: TR-FRET bromodomain binding assay, BRD4 first bromodomain. As to conditions: His-tagged BD1, 100 nM Alexa647 probe. The procedure:
(§1) A time-resolved fluorescence resonance energy transfer (TR-FRET) assay was used to determine the affinities of compounds of the Examples listed in Table 1 for each bromodomain of BRD4. His-tagged first (BD1: amino acids K57-E168) and second (BD2: amino acids E352-E168) bromodomains of BRD4 were expressed and purified. An Alexa647-labeled BET-inhibitor was used as the fluorescent probe in the assay.
(§2) Compound dilution series were prepared in DMSO via a 3-fold serial dilution from 2.5 mM to 42 nM. Compounds were then diluted 6:100 in assay buffer (20 mM Sodium Phosphate, pH 6.0, 50 mM NaCl, 1 mM EDTA, 0.01% Triton X-100, 1 mM DTT) to yield 3× working solutions. Six microliters (μL) of the working solution was then transferred to white, low-volume assay plates (Costar #3673). A 1.5× assay mixture containing His-tagged bromodomain, Europium-conjugated anti-His antibody (Invitrogen PV5596) and the Alexa-647-conjugated probe molecule was also prepared. Twelve μL of this solution were added to the assay plate to reach a final volume of 18 μL. The final concentration of 1× assay buffer contains 2% DMSO, 50 μM−0.85 nM compound, 8 nM bromodomain, 1 nM antibody and 100 or 30 nM probe (for BDI or BDII, respectively). After a one-hour incubation at room temperature, TR-FRET ratios were determined using an Envision multilabel plate reader (Ex 340, Em 495/520).
(§3) TR-FRET data were normalized to the means of 24 no-compound controls (“high”) and 8 controls containing 1 μM un-labeled probe (“low”). Percent inhibition was plotted as a function of compound concentration and the data were fit with the 4 parameter logistic equation to obtain IC50s Inhibition constants (Ki) were calculated from the IC50s, probe Kd and probe concentration. Typical Z′ values were between 0.65 and 0.75. The minimum significant ratio was determined to evaluate assay reproducibility (Eastwood et al., (2006) J Biomol Screen, 11: 253-261). The MSR was determined to be 2.03 for BDI and 1.93 for BDII, and a moving MSR (last six run MSR overtime) for both BDI and BDII was typically <3.

A further test deals with BRD4 (BDII_E352-M457) (Homo sapiens (Human), UniProt O60885). In words: TR-FRET bromodomain binding assay, BRD4 second bromodomain. As to conditions: His-tagged BD2, 30 nM Alexa647 probe. Here is the method:
as §1, §2, §3

With “3-methyl-6-(2-methylpropyl)-1-(2-phenoxyphenyl)-2,5,6,7-tetrahydro-4H-isoindol-4-one [Example 68]”, the values for the Ki at BRD4 (BDI_K57-E168) and at BRD4 (BDII_E352-M457) were 3.62 µM and 22.2 µM, respectively.
The like results for `Cc1[nH]c(-c2ccccc2Oc2ccccc2)c2c1C(=O)CCC2` [Example 2, 3-methyl-1-(2-phenoxyphenyl)-2,5,6,7-tetrahydro-4H-isoindol-4-one] were, in that order, 0.255 µM and 0.504 µM.
For `Cc1[nH]c(-c2ccccc2N)c2c1C(=O)CCC2` [Example 3, 1-(2-aminophenyl)-3-methyl-2,5,6,7-tetrahydro-4H-isoindol-4-one], in that order: 3.73 µM and 15 µM.
Take `Cc1ccc(-c2[nH]c(C)c3c2CCCC3=O)cc1` [Example 4, 3-methyl-1-(4-methylphenyl)-2,5,6,7-tetrahydro-4H-isoindol-4-one]: the Ki stood at 2.49 µM at BRD4 (BDI_K57-E168) and 15.9 µM at BRD4 (BDII_E352-M457).
For `COc1ccccc1-c1[nH]c(C)c2c1CCCC2=O` [Example 6, 1-(2-methoxyphenyl)-3-methyl-2,5,6,7-tetrahydro-4H-isoindol-4-one], in that order: 2.7 µM and 9.97 µM.
The like results for `COc1ccc(-c2[nH]c(C)c3c2CCCC3=O)cc1` [Example 11, 1-(4-methoxyphenyl)-3-methyl-2,5,6,7-tetrahydro-4H-isoindol-4-one] were, in that order, 1.88 µM and 5.46 µM.
The like results for `Cc1ccc(-c2[nH]c(C)c3c2CCCC3=O)cc1C` [Example 12, 1-(3,4-dimethylphenyl)-3-methyl-2,5,6,7-tetrahydro-4H-isoindol-4-one] were, in that order, 2.86 µM and 10.4 µM.
Regarding `Cc1[nH]c(-c2ccc(Cl)cc2)c2c1C(=O)CCC2` [Example 13, 1-(4-chlorophenyl)-3-methyl-2,5,6,7-tetrahydro-4H-isoindol-4-one], the values for the Ki at BRD4 (BDI_K57-E168) and on BRD4 (BDII_E352-M457) were 7.29 µM and 22.2 µM, respectively.
For `Cc1[nH]c(-c2cccc(OCc3ccccc3)c2)c2c1C(=O)CCC2` [Example 14, 1-[3-(benzyloxy)phenyl]-3-methyl-2,5,6,7-tetrahydro-4H-isoindol-4-one], in that order: 9.06 µM and 22.2 µM.
For `Cc1[nH]c(-c2ccccc2Cl)c2c1C(=O)CCC2` [Example 15, 1-(2-chlorophenyl)-3-methyl-2,5,6,7-tetrahydro-4H-isoindol-4-one], in that order: 1.14 µM and 22.2 µM.
For `Cc1[nH]c(-c2ccc3c(c2)OCO3)c2c1C(=O)CCC2` [Example 16, 1-(1,3-benzodioxol-5-yl)-3-methyl-2,5,6,7-tetrahydro-4H-isoindol-4-one], in that order: 3.77 µM and 8.42 µM.
With `Cc1cc(C)cc(-c2[nH]c(C)c3c2CCCC3=O)c1` [Example 17, 1-(3,5-dimethylphenyl)-3-methyl-2,5,6,7-tetrahydro-4H-isoindol-4-one], the Ki worked out at 5.51 µM at BRD4 (BDI_K57-E168) and 17.5 µM on BRD4 (BDII_E352-M457).
Consider `COc1cccc(-c2[nH]c(C)c3c2CCCC3=O)c1` [Example 20, 1-(3-methoxyphenyl)-3-methyl-2,5,6,7-tetrahydro-4H-isoindol-4-one], for which the Ki stood at 1.77 µM at BRD4 (BDI_K57-E168) and 4.49 µM at BRD4 (BDII_E352-M457).
For `Cc1[nH]c(-c2cccc3[nH]cnc23)c2c1C(=O)CCC2` [Example 21, 1-(1H-benzimidazol-4-yl)-3-methyl-2,5,6,7-tetrahydro-4H-isoindol-4-one], in that order: 1.86 µM and 5.92 µM.
In the case of `Cc1[nH]c(-c2cccc3cc[nH]c23)c2c1C(=O)CCC2` [Example 22, 1-(1H-indol-7-yl)-3-methyl-2,5,6,7-tetrahydro-4H-isoindol-4-one], the Ki was 2.47 µM at BRD4 (BDI_K57-E168) and 8.21 µM on BRD4 (BDII_E352-M457).
The like results for `Cc1[nH]c(-c2ccccc2COc2cccc(C(F)(F)F)c2)c2c1C(=O)CCC2` [Example 23, 3-methyl-1-(2-{[3-(trifluoromethyl)phenoxy]methyl}phenyl)-2,5,6,7-tetrahydro-4H-isoindol-4-one] were, in that order, 9.09 µM and 8.92 µM.
The like results for `Cc1[nH]c(-c2ccccc2COc2ccccc2)c2c1C(=O)CCC2` [Example 24, 3-methyl-1-[2-(phenoxymethyl)phenyl]-2,5,6,7-tetrahydro-4H-isoindol-4-one] were, in that order, 1.2 µM and 2.3 µM.
The like results for `Cc1ccccc1OCc1ccccc1-c1[nH]c(C)c2c1CCCC2=O` [Example 25, 3-methyl-1-{2-[(2-methylphenoxy)methyl]phenyl}-2,5,6,7-tetrahydro-4H-isoindol-4-one] were, in that order, 4.24 µM and 15.1 µM.
On to `Cc1[nH]c(-c2ccccc2-c2ccco2)c2c1C(=O)CCC2` [Example 27, 1-[2-(furan-2-yl)phenyl]-3-methyl-2,5,6,7-tetrahydro-4H-isoindol-4-one], for which the Ki on BRD4 (BDI_K57-E168) amounted to 2.76 µM; at BRD4 (BDII_E352-M457) it was 6.58 µM.
Regarding `Cc1[nH]c(-c2ccccc2O)c2c1C(=O)CCC2` [Example 28, 1-(2-hydroxyphenyl)-3-methyl-2,5,6,7-tetrahydro-4H-isoindol-4-one], the Ki came out at 5.31 µM at BRD4 (BDI_K57-E168) and 15.1 µM at BRD4 (BDII_E352-M457).
For `Cc1[nH]c(-c2ccccc2OCC2CCCC2)c2c1C(=O)CCC2` [Example 30, 1-[2-(cyclopentylmethoxy)phenyl]-3-methyl-2,5,6,7-tetrahydro-4H-isoindol-4-one], in that order: 1.25 µM and 4.78 µM.
For `Cc1[nH]c(-c2ccccc2OCc2cccc3cccnc23)c2c1C(=O)CCC2` [Example 35, 3-methyl-1-[2-(quinolin-8-ylmethoxy)phenyl]-2,5,6,7-tetrahydro-4H-isoindol-4-one], in that order: 9.14 µM and 11 µM.
For `Cc1[nH]c(-c2ccccc2OCc2cccc3ccsc23)c2c1C(=O)CCC2` [Example 36, 1-[2-(1-benzothiophen-7-ylmethoxy)phenyl]-3-methyl-2,5,6,7-tetrahydro-4H-isoindol-4-one], in that order: 8.83 µM and 9.73 µM.
As to `Cc1[nH]c(-c2ccccc2OCc2ccc3[nH]ncc3c2)c2c1C(=O)CCC2` [Example 38, 1-[2-(1H-indazol-5-ylmethoxy)phenyl]-3-methyl-2,5,6,7-tetrahydro-4H-isoindol-4-one], the Ki on BRD4 (BDI_K57-E168) was 4.88 µM; at BRD4 (BDII_E352-M457), 4.86 µM.
For the compound `Cc1[nH]c(-c2cc(NS(C)(=O)=O)ccc2Oc2ccc(F)cc2F)c2c1C(=O)CCC2` [Example 46, N-[4-(2,4-difluorophenoxy)-3-(3-methyl-4-oxo-4,5,6,7-tetrahydro-2H-isoindol-1-yl)phenyl]methanesulfonamide], the Ki turned out to be 0.014 µM on BRD4 (BDI_K57-E168) and 0.052 µM on BRD4 (BDII_E352-M457).
Regarding `Cc1[nH]c(-c2cc(NC(=O)c3ccc[nH]3)ccc2Oc2ccc(F)cc2F)c2c1C(=O)CCC2` [Example 51, N-[4-(2,4-difluorophenoxy)-3-(3-methyl-4-oxo-4,5,6,7-tetrahydro-2H-isoindol-1-yl)phenyl]-1H-pyrrole-2-carboxamide], the Ki was 0.164 µM at BRD4 (BDI_K57-E168) and 0.943 µM at BRD4 (BDII_E352-M457).
Regarding `COC(=O)c1ccc(Oc2ccccc2)c(-c2[nH]c(C)c3c2CCCC3=O)c1` [Example 53, methyl 3-(3-methyl-4-oxo-4,5,6,7-tetrahydro-2H-isoindol-1-yl)-4-phenoxybenzoate], the figures for the Ki on BRD4 (BDI_K57-E168) and on BRD4 (BDII_E352-M457) were 0.927 µM and 3.67 µM, respectively.
Take `Cc1[nH]c(-c2cc(C(=O)O)ccc2Oc2ccccc2)c2c1C(=O)CCC2` [Example 54, 3-(3-methyl-4-oxo-4,5,6,7-tetrahydro-2H-isoindol-1-yl)-4-phenoxybenzoic Acid]: the Ki on BRD4 (BDI_K57-E168) stood at 0.045 µM; on BRD4 (BDII_E352-M457) it was 0.289 µM.
For `Cc1[nH]c(-c2cc(C(=O)Nc3nccs3)ccc2Oc2ccccc2)c2c1C(=O)CCC2` [Example 57, 3-(3-methyl-4-oxo-4,5,6,7-tetrahydro-2H-isoindol-1-yl)-4-phenoxy-N-(1,3-thiazol-2-yl)benzamide], in that order: 1.07 µM and 22.2 µM.
Regarding `Cc1[nH]c(-c2ccc3c(c2)OCO3)c2c1C(=O)CC(C)(C)C2` [Example 58, 1-(1,3-benzodioxol-5-yl)-3,6,6-trimethyl-2,5,6,7-tetrahydro-4H-isoindol-4-one], the Ki is 0.932 µM on BRD4 (BDI_K57-E168) and 0.513 µM at BRD4 (BDII_E352-M457).
The like results for `Cc1[nH]c(-c2ccccc2)c2c1C(=O)CC(C)(C)C2` [Example 59, 3,6,6-trimethyl-1-phenyl-2,5,6,7-tetrahydro-4H-isoindol-4-one] were, in that order, 3.23 µM and 2.52 µM.
Turning to `Cc1ccc(C)c(-c2[nH]c(C)c3c2CC(C)(C)CC3=O)c1` [Example 60, 1-(2,5-dimethylphenyl)-3,6,6-trimethyl-2,5,6,7-tetrahydro-4H-isoindol-4-one], the Ki at BRD4 (BDI_K57-E168) stood at 3.37 µM; on BRD4 (BDII_E352-M457) it was 2.7 µM.
